{
  "source": "patent US20180228811A1",
  "about": "“GDNF INDUCTION FOR THE TREATMENT OF RETINAL DISORDERS” (THE SCHEPENS EYE RESEARCH INSTITUTE, INC., priority 2014, published 2018)",
  "key": {"GDNF [1]": {"system": "GDNF", "test": "GDNF protein induction in ARPE19 cells (ELISA)", "format": "cell-based, human", "experimental": "GDNF induction […] was assessed using three retinal-specific cell systems: ARPE19, as a model for human retinal pigment epithelium; human retinal progenitor cells (hRPC), as a substitute for human retinal neurons/glia; and mouse eyecups, differentiated from induced pluripotent stem cells. ARPE19 cells are described in Dunn et al., Exp. Eye Res. 62: 155-169, 1996. To study GDNF induction in a human retinal pigment epithelium cell line, ARPE19, thawed ARPE19 cells (passage 33, ATCC) were plated on fibronectin (Akron)-coated plates (Nunc) in stimulation medium at a density of 10 k cells/sq.cm. The flasks were incubated at standard conditions: 37° C., 5% CO2, 100% humidity. Cells were plated 24 hours prior to Compound I treatment and were grown in Ultraculture medium (Lonza), supplemented with 1×MEM NEAA (Gibco), 1× L-glutamine (Gibco), 1× Antibiotic/antimycotic (Gibco), 2 ng/ml bFGF (Peprotech), 1 ng/ml EGF (Peprotech). For qPCR analysis, the experiments were performed in 35 mm Petri dishes in 2 ml of medium with Compound I concentration of 100 nM (DMSO-based solution). Total mRNA was isolated at 0, 15, 30, 60, 120, 240 minutes post stimulation. For protein expression determination by ELISA, the experiments were performed in 96 well plates in 100 ul of medium with each condition (concentrations ranging from 0 to 10 uM) reproduced in 3 wells. For ELISA analysis, plates were removed from out of incubator 24 hours post stimulation and freeze-thawed followed by CHAPS lysis buffer treatment for total […] extraction. The ELISA analysis for GDNF was performed using GDNF DuoSet kit (R&D systems) using manufacturer's instructions."}, "GDNF [2]": {"system": "GDNF", "test": "GDNF induction by Compound I suspension in wild-type mice", "format": "in vivo, mouse", "details": "suspension intravitreally; for GDNF mRNA induction vs. vehicle / GDNF protein level vs. vehicle: wild-type mice", "experimental": "To study GDNF induction by Compound I suspension (60 mg/ml), 2 ul of suspension (n=35) or Vehicle (n=5) were administered intravitreally to 3-week old wild-type (C57/Bl6) mice. A beveled glass needle connected to a Hamilton syringe through polyethylene tubing was ysed. During the injection, corneal paracenthesis was performed to reduce intraocular pressure.\nAnimals were euthanized at several timepoints after injection for enucleation and RNA/protein analysis (n=5 for each timepoint, n=4 for 7 days and 14 days): vehicle at 1 hour, Compound I at 1 hour, 1 day, 2 days, 7 days and 14 days. The treated and untreated eyes were enucleated and were collected for mRNA and protein expression as previously described. The treated and untreated eyes were enucleated and placed in 250 ul of chilled RNAlater buffer (Qiagen) and stored at 4° C. The eyes were excised and total neural retina with retinal pigment epithelium was collected into 400 ul of Lysis buffer (Qiagen RNeasy kit) with beta-mercaptoethanol. Total RNA was isolated using RNeasy kit (Qiagen) and eluted with 100 ul of Ultrapure water (Life technologies). All flow through from RNA isolation (˜2.4 ml) was collected and mixed with 10 ml of ice-cold (−20° C.) acetone for protein precipitation. The protein was precipitated at −20° C. for 30 minutes, then pelleted at 3500 rpm for 20 min. Pellets were washed once with 100% ethanol, then reconstituted with 300 ul of RIPA buffer with AEBSF. mRNA and protein expression were assessed by qPCR and Western blot (WB). The results were analyzed by ANOVA (p<0.05)."}, "GDNF [3]": {"system": "GDNF", "test": "GDNF induction by Compound I aqueous solution in rhodopsin knockout mice", "format": "in vivo, mouse", "details": "3 hours; for GDNF protein upregulation: vehicle 1.2 fold", "experimental": "All animal procedures were performed under general (intraperitoneal ketamine/xylazine) and topical (proparacaine drops) anesthesia. Tropicamide was applied for pupil dilation. After injection, the eye was treated with antibiotic ointment (Bacitracin-Neomycin-Polymyxin). The same procedures were applied to control eyes.\nTo study GDNF induction by Compound I aqueous solution, 1 ul of 10 uM (n=5) or 100 uM (n=5) water-based Compound I or 1 ul of Vehicle (n=5) was administered intravitreally using beveled glass needle, connected to a Hamilton syringe through polyethylene tubing. During the injection, corneal paracenthesis was performed to reduce intraocular pressure. Compound I was injected into 4-week old wildtype (C57/Bl6, Jackson labs) and rhodopsin knockout (Humphries et al., Nat. Genet. 15, 216-219 (1997)).\nThree hours after the injection animals were euthanized using CO2, then the death was confirmed by cervical dislocation. The treated and untreated eyes were enucleated and placed in 250 ul of chilled RNAlater buffer (Qiagen) and stored at 4° C. Later, eyes were excised and total neural retina with retinal pigment epithelium were collected into 400 ul of Lysis buffer (Qiagen RNeasy kit) with 5 mM beta-mercaptoethanol. Total RNA was isolated using RNeasy kit (Qiagen) and eluted with 100 ul of Ultrapure water (Life technologies). All flow through from RNA isolation (˜2.4 ml) was collected and mixed with 10 ml of ice-cold (−20° C.) acetone for protein precipitation. The protein was precipitated at −20° C. for 30 minutes, then pelleted at 3500 rpm for 20 min. Pellets were washed once with 100% ethanol, then reconstituted with 300 ul of RIPA buffer with 0.2 mM 4-benzenesulfonyl fluoride hydrochloride (Tocris). mRNA and protein expression were assessed by qPCR and Western Blot and normalized to GAPDH and βActin. The statistical analysis was performed using a T-test (p<0.05) with Bonferroni post-hoc test."}, "photoreceptors": {"system": "photoreceptors", "test": "Photoreceptor rescue by Compound I suspension in rhodopsin knockout mice (H&E cell count)", "format": "in vivo, mouse", "details": "rho-/- mice", "experimental": "To study photoreceptor rescue by Compound I suspension (60 mg/ml), 2 ul of suspension (n=5) or Vehicle (n=5) were administered intravitreally to 4-week old rhodopsin knockout mice using a beveled glass needle, connected to a Hamilton syringe through polyethylene tubing. During the injection, corneal paracenthesis was performed to reduce intraocular pressure. 10 weeks after the injection, eyes were enucleated and fixed in Davidson solution for histological processing: paraffin embedding and sectioning. Six micron thick sections were cut in the area close to optic nerve head (ONH) and stained with hematoxylin-eosin (H&E) or processed for immunohistochemical analysis (IHC). H&E-stained sections were imaged (Olympus imaging system DP72) and total photoreceptor number was estimated based on the nuclei count in the outer nuclear layer (ONL). Cells were counted in each 100 um retina span starting from optic nerve head on three sections for each eye (five eyes per group). Total photoreceptor number per section was also calculated."}},
  "note": "Values joined by “and” are separate entries in the source; they are usually repeats but may differ in a detail not shown here. Identical values can stand only once. “Also recorded” adds a separate entry of the source.",
  "data": [
    {"smiles": "COc1cc2c(cc1S(=O)(=O)c1ccc(OCc3ccc(Cl)cc3)cc1)CCN(C)CC2", "note": "[Compound I, 7-[4-(4-chloro-benzyloxy)-benzenesulfonyl]-8-methoxy-3-methyl-2,3,4,5-tetrahydro-1H-3-benzazepine]", "values": [
      {"measurement": "GDNF induction", "setting": "GDNF [1]; ARPE19", "result": "More than 2 fold"},
      {"measurement": "GDNF induction, result in words", "setting": "GDNF [1]; ARPE19, 0 to 10 uM", "result": "Significant dose-dependent GDNF induction"},
      {"measurement": "concentration of Compound I at which GDNF was upregulated", "setting": "GDNF [1]; ARPE19, ELISA, FIG. 1C", "result": 3, "unit": "µM"},
      {"measurement": "increase of GDNF protein levels in vitro", "setting": "GDNF [1]; in vitro, cell system not stated (mRNA was measured in ARPE19 only)", "result": 1.8, "unit": "fold"},
      {"measurement": "GDNF mRNA upregulation over the time course", "setting": "GDNF [2]; C57Bl/6 mice, up to 14 days", "result": "> 1.8", "unit": "fold"},
      {"measurement": "GDNF protein upregulation over the time course", "setting": "GDNF [2]; C57Bl/6 mice, up to 14 days", "result": "> 2.8", "unit": "fold"},
      {"measurement": "GDNF mRNA induction vs. vehicle", "setting": "GDNF [2]; 1 hour", "result": 1.4, "unit": "fold"},
      {"measurement": "GDNF protein level vs. vehicle", "setting": "GDNF [2]; 1 hour", "result": 0.9, "unit": "fold"},
      {"measurement": "GDNF mRNA induction vs. vehicle", "setting": "GDNF [2]; 1 day", "result": 1.3, "unit": "fold"},
      {"measurement": "GDNF protein level vs. vehicle", "setting": "GDNF [2]; 1 day", "result": 1.6, "unit": "fold"},
      {"measurement": "GDNF mRNA induction vs. vehicle", "setting": "GDNF [2]; 2 days", "result": 1.2, "unit": "fold"},
      {"measurement": "GDNF protein level vs. vehicle", "setting": "GDNF [2]; 2 days", "result": 2.4, "unit": "fold"},
      {"measurement": "GDNF mRNA induction vs. vehicle", "setting": "GDNF [2]; 7 days", "result": 1.8, "unit": "fold"},
      {"measurement": "GDNF protein level vs. vehicle", "setting": "GDNF [2]; 7 days", "result": 2.7, "unit": "fold"},
      {"measurement": "GDNF mRNA induction vs. vehicle", "setting": "GDNF [2]; 14 days", "result": 1.8, "unit": "fold"},
      {"measurement": "GDNF protein level vs. vehicle", "setting": "GDNF [2]; 14 days", "result": 3.2, "unit": "fold"},
      {"measurement": "GDNF mRNA induction compared to vehicle-treated control", "setting": "GDNF [3]; 10 uM solution intravitreally", "result": 1.8, "unit": "fold"},
      {"measurement": "GDNF protein upregulation", "setting": "GDNF [3]; 10 uM solution intravitreally", "result": "> 2 fold and 2.8 fold"},
      {"measurement": "GDNF mRNA induction compared to vehicle-treated control", "setting": "GDNF [3]; 100 uM solution intravitreally", "result": 1.7, "unit": "fold"},
      {"measurement": "GDNF protein upregulation", "setting": "GDNF [3]; 100 uM solution intravitreally", "result": "> 2 fold and 2.6 fold"},
      {"measurement": "increase in photoreceptor cell number pan-retinally compared to uninjected and vehicle", "setting": "photoreceptors; 2 ul of 60 mg/ml suspension intravitreally at 4 weeks of age, 10 weeks after injection", "result": "2 fold and 2.1 fold"},
      {"measurement": "total photoreceptor cells per section", "setting": "photoreceptors; suspension, 10 weeks after injection, uninjected 516, vehicle 508", "result": 1210, "unit": "cells per section"},
      {"measurement": "retinal pigment epithelium, inner nuclear and ganglion cell layers, histology", "setting": "photoreceptors; suspension, 10 weeks after the treatment", "result": "no changes in the retinal pigment epithelium, inner nuclear or ganglion cell layers"},
      {"measurement": "increase in photoreceptor cell number in the area close to the optic nerve head (ONH)", "setting": "photoreceptors; suspension, 200 micron area", "result": 1.5, "unit": "fold"},
      {"measurement": "outer nuclear layer (ONL), histology", "setting": "photoreceptors; suspension, compared to vehicle-treated and untreated eyes", "result": "preserved; also recorded: significant increase in ONL thickness"},
      {"measurement": "photoreceptors per 200 um close to the ONH", "setting": "photoreceptors; suspension, non-treated 46, vehicle control 39", "result": 63, "unit": "photoreceptors per 200 um"}
    ]}
  ]
}
